Source: patent US5137890A, “4-phenyl tetrahydropyrido(4,3-d)pyrimidines” (Ortho Pharmaceutical Corporation, priority 1990, dated 1992)
Structures can show the parent of a compound that is named as a salt.

Tests used:
[1] = tested on: Ethanol-Induced Lesions; assay: Cytoprotection: inhibition of ethanol-induced lesions; assay type: in vivo, male, Charles River rats; conditions: Rattus norvegicus, oral, 1 hour before 50% ethanol
Protocol: Using the procedures of Robert, A. et al., Gastroenterology 77, 433(1979), male, Charles River rats weighing between 140 and 220 g were fasted overnight, but allowed water ad libitum. The rats were, however, deprived of water during the experiment. The rats were weighed and pretreated orally with the example compounds at the doses shown below in Table 1. One hour later, the necrotizing agent, 50% ethanol, was administered orally in a dose volume of 1 ml/animal. After an additional hour, the rats were sacrificed with CO2, the stomachs removed, inflated with distilled water, opened along the greater curvature and laid out on a flat surface. The presence of mucosal bleeding was noted and after wiping off the mucosa, the presence of submucosal bleeding was also noted. The incidence of lesions in the mucosa and the submucosa was statistically analyzed by the method of Chisquares using Yates correction.

[2] = tested on: 80 mg/kg aspirin; assay: Cytoprotection vs. 80 mg/kg aspirin (footnotes of Table 1); assay type: in vivo

| SMILES | inhibition in vivo at 10 mg/kg [1] [%] | ED50 [1] [mg/kg] | also measured |
| --- | --- | --- | --- |
| CC(=O)N1CCc2nc(C)nc(-c3ccc(Cl)cc3)c2C1 [Example 1, 6-Acetyl-4-(4-chlorophenyl)-2-methyl-5,6,7,8-tetrahydropyrido[4,3-d]pyrimidine] | 20 |  |  |
| CC(=O)N1CCc2nc(C)nc(-c3ccc(F)cc3)c2C1 [Example 2, 6-Acetyl-4-(4-fluorophenyl)-2-methyl-5,6,-7,8-tetrahydropyrido[4,3-d]pyrimidine Monohydrochloride Monohydrate] | 100 |  | 8/10 vs. 80 mg/kg aspirin ([2]; at 20 mg/kg vs. 80 mg/kg aspirin): 8/10 |
| CCN1CCc2nc(Nc3ccc(C(F)(F)F)cc3)nc(-c3ccc(Cl)cc3)c2C1 [Example 5, 4-(4-chlorophenyl)-6-ethyl-2-(4-trifluromethylphenylamino)-5,6,7,8-tetrahydropyrido[4,3-d]pyrimidine dihydrochloride monohydrate] | 20 |  |  |
| CCNc1nc2c(c(-c3ccc(F)cc3)n1)CN(C(C)=O)CC2 [Example 7, 6-Acetyl-4-(4-fluorophenyl)-2-ethylamino-5,6,7,8-tetrahydropyrido[4,3-d]pyrimidine] |  | 5 |  |
| C=CCN1CCc2nc(NCC)nc(-c3ccc(Cl)cc3)c2C1 [Example 9, 6-Allyl-4-(4-chlorophenyl)-2-ethylamino-5,6,7,8-tetrahydropyrido[4,3-d]pyrimidine] | 80 |  |  |
| CCNc1nc2c(c(-c3ccc(Cl)cc3)n1)CN(Cc1ccccc1)CC2 [Example 10, 6-Benzyl-4-(4-chlorophenyl)-2-ethylamino-5,6,7,8-tetrahydropyrido[4,3-d]pyrimidine] | 20 |  |  |
| CCNc1nc2c(c(-c3ccc(Cl)cc3)n1)CN(CC)CC2 [Example 11, 4-(4-Chlorophenyl)-6-ethyl-2-ethylamino-5,6,7,8-tetrahydropyrido[4,3-d]pyrimidine] |  | 9.5 |  |
| CCNc1nc2c(c(-c3ccc(F)cc3)n1)CNCC2.Cl [Example 12, 2-Ethylamino-4-(4-fluorophenyl)5,6,7,8-tetrahydropyrido[4,3-d]pyrimidine Monohydrochloride] |  | 4.7 | 8/10 vs. 80 mg/kg aspirin ([2]; at 10 mg/kg vs. 80 mg/kg aspirin): 8/10 |
| CC(=O)N1CCc2nc(N)nc(-c3ccc(Cl)cc3)c2C1 [Example 13, 6-Acetyl-2-amino-4-(4-chlorophenyl)-5,6,7,8-tetrahydropyrido[4,3-d]pyrimidine] |  | ~3 |  |
| CC(=O)N1CCc2nc(N)nc(-c3ccc(F)cc3)c2C1 [Example 14, 6-Acetyl-2-amino-4-(4-fluorophenyl)-5,6,7,8-tetrahydropyrido[4,3-d]pyrimidine Monohydrate] | 80 |  |  |
| Nc1nc2c(c(-c3ccc(Cl)cc3)n1)CNCC2 [Example 15, 2-Amino-4-(4-chlorophenyl)-5,6,7,8-tetrahydropyrido[4,3-d]pyrimidine Dihydrochloride] | 40 |  |  |
| Nc1nc2c(c(-c3ccc(F)cc3)n1)CNCC2 [Example 16, 2-amino-4-(4-fluorophenyl)-5,6,7,8-tetrahydropyrido[4,3-d]pyrimidine dihydrochloride hemihydrate] | 80 |  |  |
| CCN1CCc2nc(N)nc(-c3ccc(Cl)cc3)c2C1.Cl.Cl [Example 17, 2-Amino-4-(4-chlorophenyl)-6-ethyl-5,6,7,8-tetrahydropyrido[4,3-d]pyrimidine Dihydrochloride] |  | 3.2 | ED50 [2]: 14.5 mg/kg |
| CCN1CCc2nc(N)nc(-c3ccc(F)cc3)c2C1 [Example 18, 2-Amino-4-(4-fluorophenyl)-6-ethyl-5,6,7,8-tetrahydropyrido[4,3-d]pyrimidine] |  | 3.7 | 8/10 v. 80 mg/kg aspirin ([2]; at 40 mg/kg v. 80 mg/kg aspirin): 8/10 |
| CCCN1CCc2nc(N)nc(-c3ccc(Cl)cc3)c2C1 [Example 19, 2-Amino-4-(4-chlorophenyl)-6-propyl-5,6,7,8-tetrahydropyrido[4,3-d]-pyrimidine Dihydrochloride 1/4 Hydrate] |  | 2.7 |  |
| C=CCN1CCc2nc(N)nc(-c3ccc(Cl)cc3)c2C1.Cl.Cl [Example 20, 6-Allyl-2-amino-4-(4-chlorophenyl)-5,6,7,8-tetrahydropyrido[4,3-d]pyrimidine Dihydrochloride] |  | 7.9 |  |
| C=CCN1CCc2nc(N)nc(-c3ccc(F)cc3)c2C1.Cl.Cl [Example 21, 6-Allyl-2-amino-4-(4-fluorophenyl)-5,6,7,8-tetrahydropyrido[4,3-d]pyrimidine Dihydrochloride] |  | 5 |  |
| CN1CCc2nc(N)nc(-c3ccc(Cl)cc3)c2C1 [Example 22, 2-Amino-4-(4-chlorophenyl)-6-methyl-5,6,7,8-tetrahydropyrido[4,3-d]pyrimidine 1/4 Hydrate] | 100 |  |  |
| CC(=O)N1CCc2nc(N)nc(-c3ccccc3)c2C1.O [Example 23, 6-Acetyl-2-amino-4-phenyl-5,6,7,8-tetrahydropyrido[4,3-d]pyrimidine Monohydrate] |  | 2.3 | ED50 [2]: 9.5 mg/kg |
| CC(=O)N1CCc2nc(C)nc(-c3ccc(C)cc3)c2C1 [Example 24, 6-Acetyl-2-methyl-4-(4-methylphenyl)-5,6,7,8-tetrahydropyrido[4,3-d]pyrimidine Monohydrate] | 40 |  |  |
| CCCN(CCC)c1nc2c(c(-c3ccc(C)cc3)n1)CN(C(C)=O)CC2 [Example 25, 6-Acetyl-5,6,7,8-tetrahydro-4-(4-methylphenyl) -2-dipropylaminopyrido[4,3-d]-pyrimidine Monohydrate] | 40 |  |  |
| CCN(CC)CCN1CCc2nc(N)nc(-c3ccc(F)cc3)c2C1 [Example 26, 2-Amino-6-(2-diethylaminoethyl)-4-(4-fluorophenyl)-5,6,7,8-tetrahydropyrido[4,3-d]pyrimidine Trihydrochloride] | 80 |  |  |
| CN(C)CCCN1CCc2nc(N)nc(-c3ccc(F)cc3)c2C1 [Example 27, Trihydrochloride] |  | ~7 |  |
